Results taken from US6593342B1, “Pharmaceutical compositions comprising 2-quinolones” (Laboratoire L. Lafon, priority 1998, dated 2003).

Experiments:
T24 = test: MTT test, T24; format: cell-based; conditions: Homo sapiens, T-24, 10^−5 M, 72 hours, control = 100%, mean ± SEM, read-out: average optical density (MTT), percentage relative to control
Outline: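 Human bladder cancer cells grown in MEM/HEPES with 5% FCS were exposed for 72 h at 37 °C to compounds at 10^−5 to 10^−10 M, then to 1 mg/ml MTT for 3 h. Formazan dissolved in DMSO was read at 570 nm against 630 nm and expressed as % of solvent-control optical density.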

MXT = test: Clonogenic test (soft agar colony growth), MXT; format: cell-based, mouse; conditions: 21 days, control = 100%, mean ± SEM
Source text: (§1) 1—Interaction (Stimulation or Inhibition of Proliferation) With the Generation of Clonogenic Cells (Clonogenic Test)
(§2) The test used is that described by Hamburger et al. (Science, 1977; 197, 461-463) and Salmon et al. (New England J. Med., 298, 1321-1327). A cell is considered clonogenic if it has the capacity to proliferate and to give rise to a cell colony. “Human tumor stem cells” are the cells which are the source of the neoplastic cells which constitute a given tumor. These tumor stem cells are responsible for the relapse processes which may be observed after surgical resection of primary tumors and are also responsible for the formation of metastases. In a tumor or a tumor cell line, these clonogenic stem cells differ from the other cells of the tumor or from the neoplastic cell line under consideration in that they conserve their capacity to proliferate in the absence of any solid support.
(§3) In this test, the tumor cells are cultured on a semi-solid support consisting of agar. […] In a tumor cell population, cultured on such a support, it is these clonogenic cells (associated with an unlimited number of cell divisions and whose proliferation is referred to by M. I. Dawson as “anchorage-independent [clonal] growth”) which are capable of growing. The percentage of these clonogenic cells in a tumor or a cell line ranges between 0.1% and 0.001%.
(§4) The influence of the compounds of formulae (I) and (Ia) on the growth of the cell colonies obtained by culturing, for example, the mammalian tumor lines MCF7 and MXT and the colorectal line HT-29 on the semi-liquid culture medium known as “soft agar” was measured. On such a medium, only the clonogenic cells referred to by M. I. Dawson as “anchorage-independent (clonal) cells” survive and grow. The growth of these cells in such a “non-adherent” mode bears witness to their degree of tumorigenicity. The inhibition of the growth of the size of a tumor in which a larger number of clonogenic cells has developed then becomes the evidence of reinforced cytotoxic activity.
(§5) Conversely, this test can also reveal that a compound is capable of inhibiting the generation/proliferation of clonogenic cells, thus making the tumor less able to grow and thus reducing the population of tumor cells.
(§6) The tumor cell lines studied are maintained in culture in 25 cm^2 falcon dishes. They are then trypsinized and the cells are fully dissociated from each other. The percentage of live cells is determined after staining with trypan blue. A cell suspension at a concentration of from 5·10^4 to 15·10^4 cells/ml (depending on the cell type under consideration) is prepared in a 0.3% agar solution. Next, 200 μl of this suspension are inoculated in Petri dishes 35 mm in diameter, in which are placed 3 ml of a base layer consisting of a 0.5% agar solution. The 200 μl of cell suspension are in turn covered with 1.8 ml of an upper layer consisting of a 0.3% agar solution. The dishes are then placed in an incubator at 37° C., 5% CO2 and 70% humidity until the treatment. This treatment is carried out about 1 to 2 hours after the inoculation. The test compounds are prepared at a concentration 100 times greater than the desired concentration and 50 μl of these treating solutions are placed over the upper layer of agar in the corresponding dishes. In the present study, the final concentration of the test products is 10^−5, 10^−7 and 10^−9 M. The dishes are then kept in an incubator for 21 days. On the 21st day the dishes are treated by depositing on the upper layer 100 μl of a 1 mg/ml solution of MTT (3-(4,5-dimethylthiazol-2-yl)-2,5-diphenyltetrazolinium bromide prepared with RPMI 1640 medium) for 3 h at 37° C. After this period, the cell colonies are fixed by adding 2 ml of formalin per dish. After fixing for 24 hours, the formalin is evaporated off and the number of stained cell colonies, thus consisting of metabolically active cells, and whose surface area is greater than 100 μm^2, is determined using an inverted microscope. […]

MCF7 = test: Clonogenic test (soft agar colony growth), MCF7; format: cell-based, human; conditions: 21 days, control = 100%, mean ± SEM
Source text: as §1, §2, §3, §4, §5, §6

Compound | viability at 10 µM (T24) [%] | average number of clones of clonogenic cells, percentage relative to control (MXT; 10^−5 M) [%] | average number of clones of clonogenic cells, percentage relative to control (MXT; 10^−7 M) [%] | average number of clones of clonogenic cells, percentage relative to control (MXT; 10^−9 M) [%] | average number of clones of clonogenic cells, percentage relative to control (MCF7; 10^−5 M) [%] | average number of clones of clonogenic cells, percentage relative to control (MCF7; 10^−7 M) [%] | average number of clones of clonogenic cells, percentage relative to control (MCF7; 10^−9 M) [%]
COc1ccc(-c2cc3c(OC)cc(OC)cc3[nH]c2=O)cc1 [CRL8246, 5,7-Dimethoxy-3-(4-methoxyphenyl)-1,2-dihydro-2-quinolinone] | 109 ± 3.5 | 96.7 ± 7.2 | 97.7 ± 9.3 | 95.2 ± 6.8 | 126.8 ± 9.9 | 145.7 ± 8.9 | 139.1 ± 6.6
COc1ccc(-c2cc3c(OC)cc(OC)cc3n(CCC#N)c2=O)cc1 [CRL8247, 3-[5,7-Dimethoxy-3-(4-methoxyphenyl)-2-oxo-1,2-dihydro-1-quinolinyl]propanenitrile] | 77.8 ± 2.7 | 65.7 ± 1.7 | 89.6 ± 4.9 | 98.4 ± 2.6 | 51.5 ± 2.8 | 81.9 ± 1.2 | 98.3 ± 4.2
COc1ccc(-c2cc3c(OC)cc(OC)cc3n(CCc3nnn[nH]3)c2=O)cc1 [CRL8256, 1-[2-(1H-1,2,3,4-Tetrazol-5-yl)ethyl]-5,7-dimethoxy-3-(4-methoxyphenyl)-1,2-dihydro-2-quinolinone] | 78.2 ± 2.6 | 53 ± 1.9 | 103.8 ± 3.9 | 104.5 ± 4.7 | 51.6 ± 3.7 | 83.8 ± 3.4 | 97.9 ± 5.6
CCN(CC)C(=O)CCn1c(=O)c(-c2ccc(OC)cc2)cc2c(OC)cc(OC)cc21 [CRL8283, N,N-Diethyl-3-[5,7-dimethoxy-3-(4-methoxy-phenyl)-2-oxo-1,2-dihydro-1-quinolinyl]propanamide] | 72.9 ± 0.9 | 23.7 ± 1.4 | 81.2 ± 3 | 91.4 ± 4 | 56.5 ± 4.9 | 106.2 ± 4.8 | 97.4 ± 5.8
CCN(CC)C(=O)Cn1c(=O)c(-c2ccc(OC)cc2)cc2c(OC)cc(OC)cc21 [CRL8315, N,N-Diethyl-2-[5,7-dimethoxy-3-(4-methoxy-phenyl)-2-oxo-1,2-dihydro-1-quinolinyl]acetamide] | 89.6 ± 2.1 | 76 ± 2.3 | 103.9 ± 4.3 | 102.4 ± 3.9 | 119.6 ± 5.6 | 127 ± 8.8 | 157.1 ± 12.2
COc1ccc(-c2cc3c(OC)cc(OC)cc3n(CCN(C)C)c2=O)cc1 [CRL8316, 1-[2-(Dimethylamino)ethyl]-5,7-dimethoxy-3-(4-methoxyphenyl)-1,2-dihydro-2-quinolinone] | 94 ± 3.2 | 10.8 ± 0.5 | 89.1 ± 3.7 | 95.3 ± 3.8 | 23.2 ± 1.8 | 84 ± 5 | 83.4 ± 4.6
